Patent US20240033257A1, “USE OF PPAR-DELTA INHIBITOR IN COMBINATION WITH IMMUNOTHERAPEUTIC DRUG FOR PREPARING ANTI-TUMOR DRUG” (THE FIRST HOSPITAL OF JILIN UNIVERSITY, priority 2021, published 2024)

What was measured:
[1] = system: B16 tumor cells (mouse melanoma cells); assay: B16 melanoma tumor-bearing mouse model, tumor growth; format: in vivo; conditions: low-dose FGK45.5 (75 μg in total); inhibitors intraperitoneal once a day Day 7 to Day 16; FIG. 2a
Procedure: We used a mouse B16 melanoma model extensively used in researches and having relatively high immunogenicity (C57BL/6 B16 Tumor-Bearing Mouse Model): C57BL/6 mice (8-10-week-old, n=5/group) were subcutaneously inoculated with 7×10^5 B16 tumor cells (mouse melanoma cells), and about 8 days after inoculation of tumor cells when tumors became touchable, anti-CD40 agonistic antibody was administered.
The mice were monitored every day, and tumors were measured with calipers every four days. The tumors were measured for length (a) and width (b), and tumor volume=ab^2/2.
Dosage regimen: These tumor-bearing mice were treated using low-dose 25 μg of FGK45.5 (mouse anti-CD40 agonistic antibody) for three times, 75 μg in total (at Day 8, Day 11, and Day 14) or high-dose 40 μg for 5 times, 200 μg in total (at Day 8, Day 11, Day 14, Day 17, and Day 20) or 40 μg with Isotype Control Rat IgG for 5 times (at Day 8, Day 11, Day 14, Day 17, and Day 20). Subcutaneous injection was made between the tumor and the draining lymph node at the groin. 72 hours after the last injection of each group, samples of mouse blood serum were tested for alanine transaminase (ALT, a known indicator of liver tissue injury).
The establishment of the B16 melanoma tumor-bearing mouse model and the dosage regimens of low-dose and high-dose FGK45.5 followed Example 1. […]

[2] = system: MB49 cells (mouse bladder cancer cells); assay: MB49 bladder cancer tumor-bearing mouse model, tumor growth; format: in vivo; conditions: doses and regimens of FIG. 2a; FIG. 9
Excerpt: From the results above, we anticipate that the PPARδ inhibitor could also enhance therapeutic effects of immunotherapeutic drug on tumors in other tumor models. In order to verify such possibility, we examined the therapeutic effects of the PPARδ inhibitor in combination with FGK45.5 on MB49 bladder cancer cell tumor-bearing mice. C57BL/6 mice (8 to 10 weeks, n=5/group, 4 groups) are subcutaneously inoculated with 7×10^5 MB49 cells (mouse bladder cancer cells) and about 8 days after inoculation of tumor cells when tumors became touchable, Rat IgG, or FGK45.5, or PPARδ inhibitor (GSK3787), or FGK45.5 in combination with PPARδ inhibitor (GSK3787) was administered. Tumor growth condition was monitored.

[3] = system: human CD19+CD24hiIgDlo/− B cells; assay: Suppression of T cell IFNγ secretion by human CD19+CD24hiIgDlo/− B cells cultured with GSK3787; format: cell-based; conditions: cultured 24 hours with GSK3787
Procedure: B cells were isolated and gathered from the peripheral blood of multiple normal blood donors or patients, and CD19^+CD24^hiIgD^lo/− B cells were isolated from the gathered B cells and cultured for 24 hours in complete RPMI 1640 culture medium with or without the PPARδ inhibitor GSK3787. Then these B cells were washed twice to remove the PPARδ inhibitor, resuspended in complete RPMI 1640 culture medium at 1×10^6/ml. CD4^+CD25^− T cells were isolated from blood of normal blood donors. The treated CD19^+CD24^hiIgD^lo/− B cells and these T cells (1:1) were co-cultured for 48 hours, Dynabeads were coated with anti-human CD3 mAb and anti-human CD28 mAb and placed on a 96-well U-shaped culture plate. Golgi^plug (BD Biosciences), PMA and ionomycin were added into the culture medium together for 6 hours. CD4^+ T cells were surface stained, perforated in the cytomembrane, and stained intracellularly using fluorescence labelled anti-human IFNγ, then analyzed using flow cytometry.

B16 tumor = assay: CD19+ B cell eradication experiment in B16 tumor-bearing mice, tumor growth; format: in vivo, mouse; conditions: 250 μg anti-CD19 antibody (clone 1d3) intraperitoneal at day 6, 7 and 15; low-dose FGK45.5; FIG. 5b
Procedure: To some of the B16 tumor-bearing mice, the anti-CD19 antibody was used first to kill B cells, and then Rat IgG or FGK45.5 or FGK45.5 combined with the PPARδ inhibitor (GSK3787) was administered for treatment. Growth of the tumors was observed. Treatment with Rat IgG, FGK45.5, and FGK45.5 in combination with the PPARδ inhibitor were taken as control groups.
CD19^+ B cell Eradication Experiment: At the 6th day, 7th day, and 15th day after inoculation of B16 cells, 250 μg anti-CD19 antibody (clone 1d3) was administered to tumor-bearing mice through intraperitoneal injection, and the eradication rate of B cells as measured using FACS should be 90% or more.

[4] = system: CD19+CD24hiIgDlo/− B cells; assay: Co-culture of sorted B cell subpopulations from treated mice with CFSE-labelled CD4+ T cells; format: cell-based, mouse; conditions: B cells:T cells 1:1, 72 hours; FIG. 8a
Procedure: For evaluating the function-regulating effects on CD19^+CD24^hiIgD^lo/− B cells, the experimental scheme of Example 4 was employed. 24 hours after the last GSK3787 injection (i.e., 72 hours after the last FGK45.5 injection), mice of all groups were sacrificed. CD19^+CD24^hiIgD^lo/− B cell population and CD19^+CD24^loIgD^hiB cell population were isolated form draining lymph nodes of differently treated tumor-bearing mice using flow cytometry. Purified CD4^+ T cells from normal mice were labelled with 2.5 μM CFSE in vitro. The CFSE-labelled cells were resuspended in complete RPMI 1640 culture medium at 1×10^6/ml, and transferred into a 96-well plate coated with 10 μg/ml anti-CD3E antibody at 4° C. overnight. The B cells purified from draining lymph nodes and the foregoing T cells (1:1) were co-cultured for 72 hours in the foregoing 96-well plate containing 1 μg/ml anti-CD28 mAb for use in flow cytometry assays. The proliferation of the CFSE-labelled T cells was calculated using the equation: (1-MFI value of CFSE of T Cells in Experimental Group/MFI value of CFSE of B-cell-free T Cells in Control Group)[…].

[5] = system: lymphocytes in draining lymph nodes; assay: Lymphocyte subpopulations in draining lymph nodes of B16 tumor-bearing mice (flow cytometry, cell counting); format: in vivo, mouse
Procedure: The C57BL/6 B16 tumor-bearing mouse model (mice subcutaneously inoculated with 7×10^5 B16 cells, 8 days after inoculation of tumor cells, mice with tumors touchable) of Example 1 was used. The experiment included the treatment group of low-dose FGK45.5, the treatment group of low-dose FGK45.5 in combination with the PPARδ inhibitor, the treatment group of using the PPARδ inhibitor solely, and the isotype control Rat IgG treatment group. 24 hours after the last injection of GSK3787 (i.e., 72 hours after the last FGK45.5 injection), the mice of all group were sacrificed. Cells at lymph nodes of mice from all groups were sampled for flow cytometry assays and cell counting.

[6] = system: B cells from draining lymph nodes; assay: Inhibition of CFSE-labelled CD4+ T cell proliferation by B cells from draining lymph nodes of treated tumor-bearing mice; format: cell-based, mouse; conditions: B cells:T cells 1:1, co-cultured 72 hours; FIG. 5a
Procedure: The next point was to verify whether the PPARδ inhibitor enhances immunotherapy through affecting B cells. First, the ability of B cells in draining lymph nodes of tumor-bearing mice treated differently to inhibit proliferation of activated T cells was examined in vitro. Purified C D4^+ T cells from normal mice were labelled using 2.5 μM CFSE in vitro. The CFSE-labelled cells were then resuspended in complete RPMI 1640 culture medium at 1×10^6/ml, and transferred into a 96-well plate that had been coated with 10 μg/ml anti-CD3ε antibody at 4° C. overnight. B cells purified from draining lymph nodes and the foregoing T cells (1:1) were co-cultured for 72 hours in the foregoing 96-well plate containing 1 μg/ml anti-CD28 mAb, and a flow cytometry assay was conducted. The cell proliferation rate of the CFSE-labelled T cells was calculated using the equation: (1-MFI value of CFSE of T Cells in Experimental Group/MFI value of CFSE of B-cell-free T Cells in Control Group)×100%. MFI refers to the mean fluorescence intensity.

[7] = system: CD19+CD24hiIgDlo/− B cells; assay: Surface marker, PPARδ and Ki67 flow cytometry of B cell subpopulations in draining lymph nodes; format: in vivo, mouse
Procedure: For verifying this assumption, the experimental scheme of Example 4 was used. The mice of all groups were sacrificed at the 24th hour after the last injection of GSK3787 (i.e., the 72nd hour after the last FGK45.5 injection), and various surface marker analyses were conducted on the B cells isolated from lymph nodes of tumor-bearing mice to identify surface markers of B cell subpopulations having immunosuppressive effects and the effects of different treatments on B cell subpopulations having immunosuppressive effects.
At the 24th hour after the last GSK3787 injection, tumor draining lymph nodes of differently treated mice were sampled. The lymph nodes at the same body portion in natural, tumor-free mice were also sampled as the control group. The lymph nodes were ground into single-cell suspension. Cells from different lymph nodes were stained using various fluorescence labeling antibodies for flow cytometry assays.

O=C(Nc1ccncc1)c1cc([N+](=O)[O-])ccc1Cl [T0070907]
anti-tumor effects (speed of tumor growth) [1]: almost no anti-tumor effects

O=C(NCCS(=O)(=O)c1ccc(C(F)(F)F)cn1)c1ccc(Cl)cc1 [GSK3787]
therapeutic effects on MB49 tumors, GSK3787 in combination with FGK45.5 [2]: could further improve the effect of FGK45.5
therapeutic effects on MB49 tumors, used solely [2]: no therapeutic effects
anti-tumor effects (speed of tumor growth) [1]: almost no anti-tumor effects
suppressive activity of human CD19+CD24hiIgDlo/− B cells (IFNγ secretion of activated T cells) ([3]; B cells of cancer patients (NSCLC)): significantly reduced
suppressive activity of human CD19+CD24hiIgDlo/− B cells (IFNγ secretion of activated T cells) ([3]; B cells of healthy subjects): significantly reduced
therapeutic effects on B16 tumors with B cells eradicated (B16 tumor): lost its function of enhancing anti-tumor effects of FGK45.5
suppressive effects of CD19+CD24hiIgDlo/− B cells from draining lymph nodes of tumor-bearing mice on proliferation of activated CD4+ T cells [4]: reduced suppressive effects
proportions of CD4/CD19 cells in draining lymph nodes ([5]; FIG. 4c): basically comparable
absolute count of CD45+ cells in draining lymph nodes ([5]; low-dose FGK45.5, 24 hours after last GSK3787 injection, FIG. 4a): did not change
absolute count and proportion of CD11c+ cells in draining lymph nodes ([5]; low-dose FGK45.5, FIG. 4b): basically the same
cell counts of CD4+ T and CD8+ T cells and their proportions in CD45+ cells in draining lymph nodes ([5]; low-dose FGK45.5, FIG. 4b): consistent
inhibition of CD4 T cell proliferation by B cells from draining lymph nodes of treated tumor-bearing mice [6]: decreased inhibition
proportion of the CD19+CD24hiIgDlo/− B cell subpopulation in draining lymph nodes ([7]; B16 tumor-bearing mice, 24th hour after last GSK3787 injection, FIGS. 7a, b): decreased significantly
Ki67 expression of CD19+CD24hiIgDlo/− B cells ([7]; FIG. 7e, f): reduced increase in Ki67 expression
